Patent US11484561B2, “Morus extracts rich in N-acids of imino sugars and or pipecolic acids” (Phynova Limited, priority 2011, dated 2022)

Key:
[1] = tested on: α-D-glucosidase (Bacillus); assay: Glycosidase assay, α-D-glucosidase (Bacillus); type: biochemical; details: Table 16; % inhibition; concentration not given
Experimental: (§1) The assays used p-nitrophenyl-substrates and commercial enzymes purchased from Sigma-Aldrich. Enzymes were assayed at 27° C. in 0.1M citric acid/0.2M disodium hydrogen phosphate buffers at the optimum pH for the enzyme. The incubation mixture consisted of 10 μl enzyme solution, 10 μl of 10 mg/ml aqueous solution of extract and 50 μl of the appropriate 5 mM p-nitrophenyl substrate made up in buffer at the optimum pH for the enzyme. The reactions were stopped by addition of 70 μl 0.4M glycine (pH 10.4) during the exponential phase of the reaction, which had been determined at the beginning using uninhibited assays in which water replaced mulberry fractions. Final absorbances were read at 405 nm using a Versamax microplate reader (Molecular Devices). Assays were carried out in triplicate, and the values given are means of the three replicates per assay. Results are expressed as % inhibition.
(§2) Substrates are 10 mM p-nitrophenyl-glycopyranosides. Enzymes are purchased from Sigma and run at the pH optima

[2] = target: T1, β-D-galactosidase (bovine) (Bos taurus, UniProt Q58D55); assay: Glycosidase assay, β-D-galactosidase (bovine); type: biochemical; details: Table 16; % inhibition; concentration not given
T1 construct: purchased Sigma-Aldrich
T1 sequence (Q58D55 28-653): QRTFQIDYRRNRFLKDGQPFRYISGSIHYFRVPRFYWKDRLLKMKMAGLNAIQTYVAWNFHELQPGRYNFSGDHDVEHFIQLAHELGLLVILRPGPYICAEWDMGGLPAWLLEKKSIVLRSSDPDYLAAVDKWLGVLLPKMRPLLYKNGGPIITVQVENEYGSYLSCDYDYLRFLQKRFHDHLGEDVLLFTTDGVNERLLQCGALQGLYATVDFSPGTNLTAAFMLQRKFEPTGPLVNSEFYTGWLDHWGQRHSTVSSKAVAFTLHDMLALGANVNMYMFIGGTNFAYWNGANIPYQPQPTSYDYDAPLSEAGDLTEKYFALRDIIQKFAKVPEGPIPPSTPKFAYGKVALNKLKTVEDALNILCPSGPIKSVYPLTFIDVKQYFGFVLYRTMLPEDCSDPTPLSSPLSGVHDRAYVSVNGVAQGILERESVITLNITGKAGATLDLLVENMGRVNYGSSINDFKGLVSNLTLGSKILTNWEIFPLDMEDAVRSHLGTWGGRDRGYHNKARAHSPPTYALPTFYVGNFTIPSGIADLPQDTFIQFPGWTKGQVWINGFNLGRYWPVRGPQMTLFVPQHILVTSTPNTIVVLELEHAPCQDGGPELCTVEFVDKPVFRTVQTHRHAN
Experimental: as §1, §2

[3] = target: T2, α-D-mannosidase (Jack bean) (Canavalia ensiformis, UniProt C0HJB3); assay: Glycosidase assay, α-D-mannosidase (Jack bean); type: biochemical; details: Table 16; % inhibition; concentration not given
T2 construct: purchased Sigma-Aldrich
T2 sequence (C0HJB3 1-562 limits assumed): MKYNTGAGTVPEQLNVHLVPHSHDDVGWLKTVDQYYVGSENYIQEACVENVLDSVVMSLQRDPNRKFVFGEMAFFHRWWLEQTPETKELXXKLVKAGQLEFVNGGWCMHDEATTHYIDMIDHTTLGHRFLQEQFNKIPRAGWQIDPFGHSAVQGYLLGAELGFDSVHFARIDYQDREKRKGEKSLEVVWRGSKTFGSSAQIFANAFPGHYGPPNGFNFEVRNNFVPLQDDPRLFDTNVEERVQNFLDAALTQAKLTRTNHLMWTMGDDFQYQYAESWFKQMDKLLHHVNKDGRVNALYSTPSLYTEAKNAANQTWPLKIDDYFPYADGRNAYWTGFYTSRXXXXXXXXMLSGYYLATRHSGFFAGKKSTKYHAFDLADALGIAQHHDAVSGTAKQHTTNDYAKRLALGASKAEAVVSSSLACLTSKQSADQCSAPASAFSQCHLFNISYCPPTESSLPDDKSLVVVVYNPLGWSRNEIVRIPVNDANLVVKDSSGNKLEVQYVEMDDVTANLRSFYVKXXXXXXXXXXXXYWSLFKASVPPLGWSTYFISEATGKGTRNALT
Experimental: as §1, with “The reactions were stopped by addition of 70 μl 0.4M glycine (pH 10.4) during the exponential phase of the reaction, which had been determined at the beginning using uninhibited assays in which water replaced mulberry fractions.” left out
as §2

[4] = tested on: N-acetyl-β-D-gluc (Bovine kidney); assay: Glycosidase assay, N-acetyl-β-D-gluc (Bovine kidney); type: biochemical; details: Table 16; % inhibition; concentration not given
Experimental: as §1, §2

[5] = target: T3, α-D-galactosidase (green coffee bean) (Coffea arabica, UniProt Q42656); details: typical DNJ inhibitory activity shown for reference, in words; cited from earlier work
T3 construct: purchased Sigma-Aldrich

α-L-fucosidase (bovine) = target: T4, α-L-fucosidase (bovine) (Bos taurus, UniProt Q2KIM0); parameters: key: NI = no inhibition; details: typical DNJ inhibitory activity shown for reference, in words; cited from earlier work
T4 construct: purchased Sigma-Aldrich
T4 sequence (Q2KIM0 23-468): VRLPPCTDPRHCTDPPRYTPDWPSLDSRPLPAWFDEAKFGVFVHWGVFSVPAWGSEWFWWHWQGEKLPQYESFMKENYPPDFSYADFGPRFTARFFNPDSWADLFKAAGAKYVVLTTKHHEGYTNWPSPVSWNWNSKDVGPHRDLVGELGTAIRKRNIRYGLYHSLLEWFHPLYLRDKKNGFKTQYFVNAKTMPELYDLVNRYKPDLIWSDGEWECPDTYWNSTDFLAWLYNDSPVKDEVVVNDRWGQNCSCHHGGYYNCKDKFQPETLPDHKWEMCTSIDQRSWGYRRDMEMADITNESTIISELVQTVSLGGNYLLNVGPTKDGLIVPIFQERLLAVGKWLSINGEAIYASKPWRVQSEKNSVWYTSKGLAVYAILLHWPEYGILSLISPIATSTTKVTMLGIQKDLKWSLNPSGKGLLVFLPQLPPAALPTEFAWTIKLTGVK

[6] = tested on: naringinase (P. decumbens); parameters: key: NI = no inhibition; details: typical DNJ inhibitory activity shown for reference, in words; cited from earlier work

T3 sequence (Q42656 16-378): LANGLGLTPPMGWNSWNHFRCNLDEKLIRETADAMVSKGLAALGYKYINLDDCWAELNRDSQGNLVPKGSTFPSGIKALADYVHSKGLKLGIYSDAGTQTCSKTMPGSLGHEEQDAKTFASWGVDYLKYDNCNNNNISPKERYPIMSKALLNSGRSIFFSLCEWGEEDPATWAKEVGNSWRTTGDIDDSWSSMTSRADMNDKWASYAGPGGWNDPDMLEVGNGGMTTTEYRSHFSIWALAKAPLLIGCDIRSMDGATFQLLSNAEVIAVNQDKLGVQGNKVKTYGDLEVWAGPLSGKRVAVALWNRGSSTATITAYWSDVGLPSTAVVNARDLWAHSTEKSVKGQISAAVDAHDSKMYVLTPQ

O=C(O)CN1C[C@@H](O)[C@H](O)[C@H]1CO [DAB-N-ethanoic, DAB-N-ethanoic acid]
α-D-glucosidase (Bacillus) [1]: 24.2% | β-D-galactosidase (Bovine) [2]: 0% | α-D-mannosidase (Jack bean) [3]: 28% | N-acetyl-β-D-gluc (Bovine kidney) [4]: 82%

OC[C@H]1NC[C@H](O)[C@@H](O)[C@@H]1O [DNJ, 1 deoxynojirmycin]
α-D-glucosidase (Bacillus) [1]: 100% | β-D-galactosidase (Bovine) [2]: 0% | α-D-mannosidase (Jack bean) [3]: 27% | N-acetyl-β-D-gluc (Bovine kidney) [4]: 0% | α-D-gal green coffee bean, typical DNJ inhibitory activity [5]: weak | α-L-fuc bovine, typical DNJ inhibitory activity (α-L-fucosidase (bovine)): NI | naringinase Penecillium, typical DNJ inhibitory activity [6]: NI

O=C(O)CN1C[C@H](O)[C@@H](O)[C@H](O)[C@H]1CO [DNJ-N-ethanoic, DNJ-ethanoic acid]
α-D-glucosidase (Bacillus) [1]: 9.1% | β-D-galactosidase (Bovine) [2]: 2% | α-D-mannosidase (Jack bean) [3]: 38% | N-acetyl-β-D-gluc (Bovine kidney) [4]: 84%

O=C(O)CCN1C[C@H](O)[C@@H](O)[C@H](O)[C@H]1CO [DNJ-N-propanoic, DNJ-N-propanoic acid]
α-D-glucosidase (Bacillus) [1]: 45.0% | β-D-galactosidase (Bovine) [2]: 12% | α-D-mannosidase (Jack bean) [3]: 40% | N-acetyl-β-D-gluc (Bovine kidney) [4]: 86%
